Here are results for one molecule from patent US6033823A, “Mutated penicillin G acylase genes” (priority 1994, dated 2000).

In assay [1] the target is T1, Alcaligenes faecalis Penicillin G acylase mutant A:M143V (Alcaligenes faecalis, UniProt O34142, M169V).
T1 construct: alpha 202 aa, beta 551 aa; recombinant, E. coli host
T1 sequence (O34142 27-228 M169V): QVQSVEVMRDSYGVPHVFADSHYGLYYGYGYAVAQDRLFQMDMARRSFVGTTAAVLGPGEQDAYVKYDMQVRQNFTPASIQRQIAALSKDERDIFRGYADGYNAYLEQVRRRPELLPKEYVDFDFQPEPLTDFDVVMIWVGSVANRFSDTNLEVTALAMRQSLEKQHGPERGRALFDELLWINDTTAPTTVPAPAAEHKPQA
T1 sequence (O34142 266-816): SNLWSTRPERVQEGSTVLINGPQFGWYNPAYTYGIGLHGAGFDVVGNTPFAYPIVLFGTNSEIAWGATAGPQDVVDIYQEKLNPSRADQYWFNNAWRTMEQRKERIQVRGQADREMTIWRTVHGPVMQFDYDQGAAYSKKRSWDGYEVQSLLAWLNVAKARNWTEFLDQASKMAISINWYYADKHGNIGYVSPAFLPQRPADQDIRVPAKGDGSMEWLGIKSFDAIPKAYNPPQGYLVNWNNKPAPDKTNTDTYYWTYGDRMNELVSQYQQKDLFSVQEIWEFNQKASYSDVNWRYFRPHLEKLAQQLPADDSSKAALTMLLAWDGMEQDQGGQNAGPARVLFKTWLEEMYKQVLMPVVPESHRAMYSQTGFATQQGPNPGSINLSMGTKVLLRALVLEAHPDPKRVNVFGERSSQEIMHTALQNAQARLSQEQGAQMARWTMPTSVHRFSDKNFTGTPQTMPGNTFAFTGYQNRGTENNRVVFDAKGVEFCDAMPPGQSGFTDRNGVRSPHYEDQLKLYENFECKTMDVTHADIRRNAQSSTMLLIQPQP
Put plainly: Deacylation kinetics and phenylacetic acid product inhibition, mutant A:M143V. It counts as biochemical. As to conditions: from progress curves of NIPAB deacylation, 25° C., 0.1 M NaH2PO4.H2O buffer pH 7.5, read-out: Ki Phenylacetic acid (inhibition constant, dissociation constant). Here is the method:
In order to determine enzymatic activity the acylases were incubated with substrate at room temperature in buffered solution. In case β-lactamase impurity was expected to be present in the enzyme preparations, 1.0 mM -lactamase inhibitor 6-bromo-penicillanic acid was added to the assay. The reactions were stopped by adding an excess PMSF. For some mutants which were less sensitive to PMSF inhibition, the reactions were stopped by adding 0.5 M HCl or 0.5 M acetic acid until the pH was between 3 and 4. When reactions were subsequently analysed by HPLC, the reactions were stopped by dilution with the correponding elution solvent (see table 1). […]
The composition of the reaction mixtures was determined by high-performanceliquid chromatography (HPLC)(table 1). Concentrations were determined by using standards of known concentration.
In a continuous assay Penicillin G acylase was assayed spectro-fotometrically with the chromogenic substrate NIPAB [6-nitro-3-phenylacetamido-benzoic acid]. The liberation of 3-amino-6-nitrobenzoic acid was monitored by measuring the extinction at 405 nm in a Kontron 610 kinetic spectrofotometer. […]
Initial rate measurements were performed with excess substrate over the enzyme. Catalytic parameters were derived from least-squares fitting of the measured initial rates plotted for various substrate concentrations according to the Michaelis-Menten equation. […]

In assay [2] the target is T2, Alcaligenes faecalis Penicillin G acylase mutant B:L56G (Alcaligenes faecalis, UniProt O34142, L321G).
T2 construct: alpha 202 aa, beta 551 aa; recombinant, E. coli host
T2 sequence (O34142 27-228): T1 sequence (O34142 27-228 M169V) with V143M
T2 sequence (O34142 266-816 L321G): T1 sequence (O34142 266-816) with L56G
Put plainly: NIPAB kinetics and phenylacetic acid product inhibition, mutant B:L56G. Type of assay: biochemical. The following applies: from progress curves of NIPAB deacylation, 25° C., 0.1 M NaH2PO4.H2O buffer pH 7.5, read-out: Ki Phenylacetic acid (inhibition constant, dissociation constant). Here is the method:
In a continuous assay Penicillin G acylase was assayed spectro-fotometrically with the chromogenic substrate NIPAB [6-nitro-3-phenylacetamido-benzoic acid]. The liberation of 3-amino-6-nitrobenzoic acid was monitored by measuring the extinction at 405 nm in a Kontron 610 kinetic spectrofotometer. Measuring maximal rate, the assays were performed at 25° C. using 20 mM NaH2 PO4.H2 O at pH 7.5 with 20 mM NIPAB and 100 μl enzym solution (at a proper dilution). Initial rate measurements were performed with varying concentration of NIPAB.
Initial rate measurements were performed with excess substrate over the enzyme. Catalytic parameters were derived from least-squares fitting of the measured initial rates plotted for various substrate concentrations according to the Michaelis-Menten equation.
The complete conversion of NIPAB was followed as a funtion of time at 20, 50 and 100 μM NIPAB by following the increase in absorbtion at 405 nm. Products of this conversion are phenylacetic acid and 3-amino-6-nitrobenzoic acid. The conversion was performed at 25° C. in 0.1 M NaH2 PO4.H2 O buffer pH 7.5. The progress curves of the deacylation of NIPAB could be fitted very well when product inhibition by phenylacetic acid was taken into account. […]

Positions count from the first letter of the chain named.

For the molecule `O=C(O)Cc1ccccc1` [phenylacetic acid], the Ki (usually the equilibrium dissociation constant of an inhibitor or competing ligand from its target) in assay [1] came out at 74 µM; in assay [2] it was 55 µM.
